Test system: immune response to oxazolone
Assay: Rescue of the cyclophosphamide-inhibited delayed contact response to oxazolone in mice (Example A, b)
Format: in vivo
Conditions: Mus musculus, ip, 48 h; cyclophosphamide alone, 200mg/kg intraperitoneal, two days after sensitisation with oxazolone; C57B1 mice

O=P1(N(CCCl)CCCl)NCCCO1 (stereo not shown) [cyclophosphamide]
inhibition at 200 mg/kg: 64%

— EP0164204A1, “Novel pharmaceutically useful pyrimidines” (FISONS plc, priority 1984, dated 1985)
